The source of these data is patent publication US7446111B2, “Amorphous rapamycin 42-ester with 3-hydroxy-2-(hydroxymethyl)-2-methylpropionic acid and its pharmaceutical compositions” (Wyeth, priority 2003, dated 2008).

A short description of series [1]: physchem. Format: physicochemical. Particulars: for Solubility: pH 4.6. As to the method:
The solutions were mixed and maintained at room temperature and a pH of about 4.6. The vials were then shaken on a rotary shaker for 24 hours.
Samples (2 mL) of both of the amorphous and crystalline solutions were withdrawn at selected time intervals (0, 0.5, 3, 5, and 24 h), filtered through a 0.2 μm filter and analyzed at room temperature using high performance liquid chromatography (HPLC) (Table 1). The solubility of the samples was calculated using the data provided in the HPLC chromatograph and techniques used by those skilled in the art and is provided in Table 3.

A short description of series [2]: physchem. Format: physicochemical. Here is the method: A 0.005 M citric acid solution containing 0.2% sodium lauryl sulfate and 0.001% calcium EDTA was adjusted to a pH of about 4.73.
The solutions were then mixed, maintained at room temperature, and shaken on a rotary shaker for about 24 to about 48 hours.
Samples (2 mL) of both the amorphous and crystalline solutions were withdrawn at 24 h and 48 h, filtered through a 0.2 μm filter and analyzed at room temperature using high performance liquid chromatography (HPLC) (Table 4). Solubilities of the samples were then calculated using the data provided in the HPLC chromatograph and techniques used by those of skilled in the art and is provided in Table 4.

Where [3] appears, read: 5° C., 1 Week, sample prepared by precipitation.
Setting [4] is: 40° C./75% RH, 1 Week, sample prepared by precipitation.
Where [5] appears, read: Initial, sample prepared by precipitation.
Where [6] appears, read: RT, 1 Week, sample prepared by precipitation.
[7] abbreviates: 25 °C, pH 4.6, aqueous buffer, thermodynamic from solid.
The mark [8] stands for this setting: 25 °C, pH 4.73, aqueous with cosolvent or surfactant or cyclodextrin, thermodynamic from solid.
Where [9] appears, read: 5° C., 1 week, sample prepared by evaporation.
The mark [10] stands for this setting: 5° C., 2 weeks, sample prepared by evaporation.
[11] abbreviates: 40° C./75% RH, 1 week, sample prepared by evaporation.
The mark [12] stands for this setting: 40° C./75% RH, 2 weeks, sample prepared by evaporation.
Setting [13] is: Initial, sample prepared by evaporation.

Values after ≈ are worked out from the molar mass of the structure shown. Like-named read-outs stand apart in the source and are kept apart here.

With `COC1CC2CCC(C)C(O)(O2)C(=O)C(=O)N2CCCCC2C(=O)OC(C(C)CC2CCC(OC(=O)C(C)(CO)CO)C(OC)C2)CC(=O)C(C)/C=C(\C)C(O)C(OC)C(=O)C(C)CC(C)/C=C/C=C/C=C/1C` (centres unmarked) [Amorphous (batch C4), rapamycin 42-ester with 3-hydroxy-2-(hydroxymethyl)-2-methylpropionic acid], the SLI under setting [3] amounted to 0.15%, the SLI under setting [4] came to 0.32%, the SLI under setting [5] came out at 0.20% and the SLI under setting [6] was found to be 0.12%. Further, the Strength is, setting by setting: under setting [3], 98.71%; under setting [4], 91.36%; under setting [5], 97.93%; under setting [6], 97.49%. Moreover, the “Total Imp” value runs as follows: under setting [3], 0.44%; under setting [4], 0.70%; under setting [5], 0.41%; under setting [6], 0.37%. This molecule also gave an SECO under setting [4] of 0.04%.
For `CO[C@H]1C[C@@H]2CC[C@@H](C)[C@@](O)(O2)C(=O)C(=O)N2CCCC[C@H]2C(=O)O[C@H]([C@H](C)C[C@@H]2CC[C@@H](OC(=O)C(C)(CO)CO)[C@H](OC)C2)CC(=O)[C@H](C)/C=C(\C)[C@@H](O)[C@@H](OC)C(=O)[C@H](C)C[C@H](C)/C=C/C=C/C=C/1C` [Crystalline, rapamycin 42-ester with 3-hydroxy-2-(hydroxymethyl)-2-methylpropionic acid], the Solubility in series [1] (0 h) stood at 0 µg/mL. In series [1] (setting [7]), this molecule displayed a solubility at 0.5 h of 0.26 µg/mL (≈ 0.252 µM), a solubility at 3 h of 0.29 µg/mL (≈ 0.281 µM), a solubility at 5 h of 0.23 µg/mL (≈ 0.223 µM) and a solubility at 24 h of 0.61 µg/mL (≈ 0.592 µM). In series [2] (setting [8]), this molecule registered a solubility at 24 h of 640 µg/mL (≈ 621 µM) and a solubility at 48 h of 640 µg/mL (≈ 621 µM).
As for `COC1CC2CCC(C)C(O)(O2)C(=O)C(=O)N2CCCCC2C(=O)OC(C(C)CC2CCC(OC(=O)C(C)(CO)CO)C(OC)C2)CC(=O)C(C)/C=C(\C)C(O)C(OC)C(=O)C(C)CC(C)/C=C/C=C/C=C/1C` (centres unmarked) [amorphous rapamycin 42-ester with 3-hydroxy-2-(hydroxymethyl] [rapamycin 42-ester with 3-hydroxy-2-(hydroxymethyl)-2-methylpropionic acid], the “Temperature up to which the amorphous form is stable” value was “up to 5 °C”. Moreover, in series [1], the “Solubility relative to crystalline form” value is 3 times, the “Solubility relative to crystalline form (general statement)” value was “at least 3 times” and the Solubility entry is reported as “about 1.88 μg/mL”. In addition, in series [2], the “Solubility relative to crystalline form” value is “about 3.5 times”. For the same molecule, the Solubility entry in series [2] (pH 4.73) is given as “about 2.17 mg/mL”.
`CO[C@H]1C[C@@H]2CC[C@@H](C)[C@@](O)(O2)C(=O)C(=O)N2CCCC[C@H]2C(=O)O[C@H]([C@H](C)C[C@@H]2CC[C@@H](OC(=O)C(C)(CO)CO)[C@H](OC)C2)CC(=O)[C@H](C)/C=C(\C)[C@@H](O)[C@@H](OC)C(=O)[C@H](C)C[C@H](C)/C=C/C=C/C=C/1C` [batch A1, rapamycin 42-ester with 3-hydroxy-2-(hydroxymethyl)-2-methylpropionic acid]: the “SLI*” value by setting is: under setting [9], 3.91%; under setting [10], 3.74%; under setting [11], 3.93%; under setting [12], 3.72%. Moreover, the Strength is reported as 95.20% under setting [9]; 92.56% under setting [10]; 94.16% under setting [11]; 90.55% under setting [12]; “Strength = 98.33%,” under setting [13]. Besides, the “Total Imp” value by setting is: under setting [9], 5.07%; under setting [10], 4.42%; under setting [11], 5.15%; under setting [12], 4.60%; under setting [13], 0.46%. Under setting [13], this molecule yielded an SLI of 0.19%.

One may read the Solubility as how much of the substance goes into solution per volume. The low end stands for a poorly soluble substance, the high end for a readily soluble substance. Usually solubility stands for the concentration that dissolves in the medium under given conditions. A higher solubility goes with a readily soluble substance.
